Columns and labels:
Format in all cases: cell-based, mouse
[1] = system: TH gene, Cdc42 gene and tau gene; assay: Marker gene expression (TH, Cdc42, tau) by reverse transcription PCR in selected cell strains; conditions: selected two cell strains cultured with vs without 2,3,7,8-TCDD (FIG. 3)
Protocol: Total RNAs were extracted with an RNeasy kit after culturing the selected two cell strains in DF1:1 medium supplemented with 2,3,7,8-TCDD, and cDNA was synthesized by a reverse transcription reaction. Subsequently, using cDNA synthesized above as a template and ExTaq (manufactured by Takara Bio Inc.), expression of the TH gene was confirmed by 25 cycles of PCR comprising one cycle with denaturation of 94° C./30 second, annealing of 60° C./30 seconds and extension of 72° C./30 seconds. Also, expression of the Cdc42 gene and tau gene was confirmed by 25 cycles of PCR comprising one cycle with denaturation of 94° C./30 second, annealing of 58° C./30 seconds and extension of 72° C./30 seconds. A forward primer 5′-CCACggTgTACTggTTCACT (SEQ ID NO: 7) and a reverse primer 5′-ggCATAgTTCCTgAgCTTgT (SEQ ID NO: 8) were used as primers for the TH gene; a forward primer 5′-gATACTgCAgggCAAgAgg (SEQ ID NO: 9) and a reverse primer 5′-CAggCACCCACTTTTCTTTC (SEQ ID NO: 10) were used as primers for the Cdc42 gene; and a forward primer 5′-TCCggAgAACgAAgCggCTACAgC (SEQ ID NO: 11) and a reverse primer 5′-TgCTgAggTgCCgTggAgATgTgT (SEQ ID NO: 12) were used as primers for the tau gene. As a result, the amounts of expression of the TH gene, Cdc42 gene and tau gene were increased in any of the two selected cell strains cultured with 2,3,7,8-TCDD as compared with the cell strains cultured without 2,3,7,8-TCDD (FIG. 3).

[2] = system: aryl hydrocarbon receptor; assay: CYP1A1 gene expression by reverse transcription PCR in selected cell strains; conditions: 30 nM, 24 hours, with vs without; both selected cell strains
Source text: (2) Cells functionally expressed the aryl hydrocarbon receptor protein are selected from the cells obtained in (c). A gene known to be able to induce expression of the gene through activation of the aryl hydrocarbon receptor is used as a marker as an indication of the selection. Examples of the gene include genes for CYP1A1, UGT glycosyltransferase 1 family, polypeptide A6 (UGT1A6) or glutathione-S-transferase (GST). The selection procedure includes, for example, culturing the cells to be selected in a conventional culture medium such as DF1:1 medium containing 10% of fetal bovine serum for 1 to 5 days; culturing the cells in a conventional culture medium such as DF1:1 medium containing 10% of fetal bovine serum for 1 week by adding a ligand of aryl hydrocarbon receptor; and extracting RNAs from the cells to detect the expression of the marker gene by a known RNA detection method such as northern hybridization and reverse transcription PCR. Alternatively, the protein translated from the marker gene is detected by a known detection method such as western blotting. The cells confirmed to induce the expression of the marker gene by this confirmation are selected.
After cultivating these cell strains in DF1:1 suppremented with or without 30 nM of 2,3,7,8-TCDD for 24 hours, total RNAs were extracted from the cells. An RNeasy kit was used for extraction of total RNA. […]

[3] = system: tau protein and TH protein; assay: Marker protein expression (tau, TH) by western blotting in selected cell strains; conditions: 10 nM, three weeks, with vs without; selected two cell strains (FIG. 4)
Protocol: After the selected two cell strains were cultured in DF1:1 medium supplemented with 10 nM of 2,3,7,8-TCDD for three weeks, the amounts of expression of the tau protein and TH protein were confirmed by extracting the proteins and by conducting western blotting with a tau protein antibody and TH protein antibody. The amounts of expression of the tau protein and TH protein were increased in any of the selected two cell strains as compared with neurotoxicity responsive cells cultured without adding 2,3,7,8-TCDD (FIG. 4).

Neuro2a = assay: CYP1A1 gene expression by reverse transcription PCR in parent Neuro2a; conditions: 30 nM, 24 hours; parent Neuro2a (no AhR gene detected)
Protocol: After cultivating these cell strains in DF1:1 suppremented with or without 30 nM of 2,3,7,8-TCDD for 24 hours, total RNAs were extracted from the cells. An RNeasy kit was used for extraction of total RNA. The extracted RNA was reverse-transcripted using an oligo(dT) primer. Subsequently, expression of CYP1A1 gene was confirmed by 25 cycles of PCR comprising 1 cycle with denaturation of 94° C./30 second, annealing of 55° C./30 seconds and extension of 72° C./30 seconds. CYP1A1 gene is one of genes, of which expression thereof is induced by binding of the aryl hydrocarbon receptor activated by binding of a ligand to XRE (xenobiotic responsive element) on DNAs. A forward primer 5′-CCCACAgCACCACAAgAgATA (SEQ ID NO: 5) and a reverse primer 5′-AAgTAggAggCACAATgTC (SEQ ID NO: 6) were used as primers for PCR. As a result, expression of CYP1A1 gene was increased by adding 2,3,7,8-TCDD in both of two selected cell strains. While the same experiment was performed with respect to Neuro2a, no increase of the amount of expression of CYP1A1 gene was observed.

[4] = system: Neuro2a transfected with aryl hydrocarbon receptor-expressing nucleic acid pcDNA4-rAhR; assay: Neurite outgrowth (cell morphology) of cell strains transfected with pcDNA4-rAhR; conditions: 10 nM, DF1:1 medium, 1 to 3 weeks; two selected AhR-transfected Neuro2a strains (FIG. 2)
Protocol: (3) Cells in which neurites outgrow this observed by adding ligand of the aryl hydrocarbon receptor, are selected from the cell strains obtained in (c). Cells into which the receptor-expressing nucleic acid is transfected are cultured in a conventional culture medium such as DF1:1 medium containing 10% fetal bovine serum with or without adding ligand of the aryl hydrocarbon receptor for 1 to 3 weeks. And morphological changes are compared between the two types of the cells described above. The number of the neurite from the cell, the length of the neurite, and the number of the cells in which the neurite is outgrown are compared when the morphology changes of the cell strain are used as indications. It is more preferable that comparison of increase of a proportion of a number of cells with neurite having a twofold length of a diameter of the each cells, to the total cells which are in contacted with a ligand of aryl hydrocarbon receptor. The cells in which the neurite is outgrown by adding ligand of the aryl hydrocarbon receptor are selected, by comparing the cells in which the receptor-expressing nucleic acid is transfected by adding the ligand of the aryl hydrocarbon receptor with the cells in which the receptor-expressing nucleic acid is transfected without adding the ligand of the aryl hydrocarbon receptor. […]

SMILES: Clc1cc2c(cc1Cl)Oc1cc(Cl)c(Cl)cc1O2 [2,3,7,8-TCDD, 2,3,7,8-tetrachlorodibenzo-p-dioxin]
- amount of expression of the Cdc42 gene [1]: increased
- amount of expression of the TH gene [1]: increased
- amount of expression of the tau gene [1]: increased
- expression of CYP1A1 gene [2]: increased
- amount of expression of the TH protein [3]: increased
- amount of expression of the tau protein [3]: increased
- amount of expression of CYP1A1 gene (Neuro2a): no increase
- neurite outgrowth (morphology of the cell) [4]: particularly high proportion of neurite outgrowth
